Test results published in US20090143279A1 (priority 2007, published 2009).
Like-named read-outs stand apart in the source and are kept apart here.

How the values were obtained:
OXPHOS gene expression = format: cell-based, mouse; conditions: for GE-HTS (composite Z-score): normalized score vs mock-treated (DMSO) wells
cytochrome c = format: cell-based, mouse; conditions: for cyt c (composite Z-score): normalized score vs mock-treated (DMSO) wells
C2C12 myotubes = conditions: for Viability (composite Z-score): normalized score vs mock-treated (DMSO) wells
[1] = system: mitochondrial membrane potential; format: cell-based, mouse; conditions: for ΔΨm (composite Z-score): normalized score vs mock-treated (DMSO) wells
nuOXPHOS transcripts = format: cell-based, mouse; conditions: for nucOX (composite Z-score): normalized score vs mock-treated (DMSO) wells
mtOXPHOS transcripts = format: cell-based, mouse; conditions: for mitoOX (composite Z-score): normalized score vs mock-treated (DMSO) wells
[2] = system: cellular dehydrogenase activity; conditions: for MTT (composite Z-score): normalized score vs mock-treated (DMSO) wells
reactive oxygen species = format: cell-based, mouse; conditions: for ROS (composite Z-score): normalized score vs mock-treated (DMSO) wells
[3] = composite Z-score vs DMSO, Conc 20 μM
[4] = 8.76 μM, composite Z-score vs DMSO
[5] = 20 μM, composite Z-score vs DMSO
[6] = normalized composite Z-score vs mock-treated (DMSO) wells, Conc 20 μM
[7] = composite Z-score vs mock-treated (DMSO) wells, Conc 20 μM
[8] = composite Z-score vs DMSO wells, Conc 20 μM
[9] = 15.02 μM, composite Z-score vs DMSO

Which GE-HTS (OXPHOS gene expression; [3]) does the source give for `Nc1nc2c(ncn2[C@H]2C[C@H](O)[C@@H](CO)O2)c(=O)[nH]1` [deoxyguanosine] here?
The GE-HTS was −0.001.

And the cyt c (cytochrome c; [3])?
The cyt c was 0.695.

And the Viability (C2C12 myotubes; [3])?
The Viability was −0.819.

What about the ΔΨm [1, 3] of the same compound?
Its ΔΨm is −0.268.

And the nucOX (nuOXPHOS transcripts; [3])?
Its nucOX is −0.090.

What about the mitoOX (mtOXPHOS transcripts; [3]) of the same compound?
The mitoOX was 0.245.

What about the MTT [2, 3] of the same compound?
Its MTT is −0.703.

What about the ROS (reactive oxygen species; [3]) of the same compound?
The ROS was −0.110.

What does the source list for `CC(=O)O[C@H]1C[C@@H](OC(C)=O)C(C)(C)[C@@H]2C[C@@H](OC(C)=O)[C@@]3(C)C4=CC(=O)O[C@@H](c5ccoc5)[C@]4(C)CC[C@@H]3[C@@]12C` [deoxykhivorin]?
GE-HTS (composite Z-score) (OXPHOS gene expression; Conc 20 μM): −1.026; cyt c (composite Z-score) (cytochrome c; Conc 20 μM): 0.073; Viability (composite Z-score) (C2C12 myotubes; Conc 20 μM): 0.803; ΔΨm (composite Z-score) ([1]; Conc 20 μM): 0.449; nucOX (composite Z-score) (nuOXPHOS transcripts; Conc 20 μM): −0.917; mitoOX (composite Z-score) (mtOXPHOS transcripts; Conc 20 μM): −1.101; MTT (composite Z-score) ([2]; Conc 20 μM): −0.494; ROS (composite Z-score) (reactive oxygen species; Conc 20 μM): −0.038

Which results are given for `COc1ccc2c(c1)OCC(Cc1ccc(OC)c(OC)c1)C2=O` (stereo not shown) [deoxysappanone B trimethyl ether]?
GE-HTS (composite Z-score) (OXPHOS gene expression; Conc 20 μM): 0.993; cyt c (composite Z-score) (cytochrome c; Conc 20 μM): 0.336; Viability (composite Z-score) (C2C12 myotubes; Conc 20 μM): −0.068; ΔΨm (composite Z-score) ([1]; Conc 20 μM): −0.194; nucOX (composite Z-score) (nuOXPHOS transcripts; Conc 20 μM): 1.050; mitoOX (composite Z-score) (mtOXPHOS transcripts; Conc 20 μM): 0.613; MTT (composite Z-score) ([2]; Conc 20 μM): −1.507; ROS (composite Z-score) (reactive oxygen species; Conc 20 μM): 1.064

`Cc1cc(N)c2ccccc2[n+]1CCCCCCCCCC[n+]1c(C)cc(N)c2ccccc21` [dequalinium] was tested. Which GE-HTS (OXPHOS gene expression; [4]) did it give?
Its GE-HTS is −1.322.

What about the GE-HTS (OXPHOS gene expression; [5]) of the same compound?
Its GE-HTS is −1.733.

What about the cyt c (cytochrome c; [4]) of the same compound?
Its cyt c is −4.108.

And the cyt c (cytochrome c; [5])?
Its cyt c is −3.241.

What about the Viability (C2C12 myotubes; [4]) of the same compound?
Its Viability is −3.696.

What about the Viability (C2C12 myotubes; [5]) of the same compound?
The Viability was −3.176.

And the ΔΨm [1, 4]?
The ΔΨm was −3.242.

And the ΔΨm [1, 5]?
The ΔΨm was −2.506.

What about the nucOX (nuOXPHOS transcripts; [4]) of the same compound?
Its nucOX is −0.852.

And the nucOX (nuOXPHOS transcripts; [5])?
The nucOX was −1.087.

And the mitoOX (mtOXPHOS transcripts; [4])?
Its mitoOX is −2.024.

What about the mitoOX (mtOXPHOS transcripts; [5]) of the same compound?
Its mitoOX is −2.705.

What about the MTT [2, 4] of the same compound?
Its MTT is −5.151.

What about the MTT [2, 5] of the same compound?
Its MTT is −4.446.

What about the ROS (reactive oxygen species; [4]) of the same compound?
The ROS was −3.041.

And the ROS (reactive oxygen species; [5])?
Its ROS is −3.055.

For `CC(C)=CCc1c(O)cc2occ(-c3ccc4c(c3)OCO4)c(=O)c2c1O` [derrubone], which GE-HTS (OXPHOS gene expression; [3]) is on record?
Its GE-HTS is −0.409.

What about the cyt c (cytochrome c; [3]) of the same compound?
Its cyt c is −0.126.

And the Viability (C2C12 myotubes; [3])?
The Viability was −0.568.

What about the ΔΨm [1, 3] of the same compound?
Its ΔΨm is −1.272.

What about the nucOX (nuOXPHOS transcripts; [3]) of the same compound?
The nucOX was −0.626.

And the mitoOX (mtOXPHOS transcripts; [3])?
Its mitoOX is 0.066.

And the MTT [2, 3]?
The MTT was −0.499.

What about the ROS (reactive oxygen species; [3]) of the same compound?
The ROS was 1.419.

How did the GE-HTS (OXPHOS gene expression; [6]) turn out when `COc1cc(OC)c2c(OC)c(-c3ccc4c(c3)OCO4)c(=O)oc2c1` [derrusnin] was run?
Its GE-HTS is 0.039.

And the cyt c (cytochrome c; [6])?
The cyt c was 0.511.

What about the Viability (C2C12 myotubes; [6]) of the same compound?
Its Viability is 1.067.

And the ΔΨm [1, 6]?
Its ΔΨm is 0.025.

What about the nucOX (nuOXPHOS transcripts; [6]) of the same compound?
The nucOX was −0.129.

And the mitoOX (mtOXPHOS transcripts; [6])?
The mitoOX was 0.417.

And the MTT [2, 6]?
Its MTT is −1.630.

And the ROS (reactive oxygen species; [6])?
Its ROS is 4.060.

With `c1ccc2c(c1)CN1CCCC1=N2` [desoxypeganine] as the compound, how does the GE-HTS (OXPHOS gene expression; [3]) read?
The GE-HTS was 0.631.

What about the cyt c (cytochrome c; [3]) of the same compound?
The cyt c was 0.372.

What about the Viability (C2C12 myotubes; [3]) of the same compound?
Its Viability is −0.281.

What about the ΔΨm [1, 3] of the same compound?
The ΔΨm was 1.046.

What about the nucOX (nuOXPHOS transcripts; [3]) of the same compound?
Its nucOX is 0.621.

And the mitoOX (mtOXPHOS transcripts; [3])?
The mitoOX was 0.556.

And the MTT [2, 3]?
Its MTT is 1.441.

And the ROS (reactive oxygen species; [3])?
Its ROS is 0.647.

Which results are given for `CC(=O)OCC(=O)[C@@]1(O)[C@H](C)C[C@H]2[C@@H]3CCC4=CC(=O)C=C[C@]4(C)[C@@]3(F)[C@@H](O)C[C@@]21C` [dexamethasone acetate]?
GE-HTS (OXPHOS gene expression; [3]): 0.461; cyt c (cytochrome c; [3]): 0.174; Viability (C2C12 myotubes; [3]): −1.518; ΔΨm [1, 3]: −0.439; nucOX (nuOXPHOS transcripts; [3]): 0.516; mitoOX (mtOXPHOS transcripts; [3]): 0.330; MTT [2, 3]: 0.058; ROS (reactive oxygen species; [3]): 0.067

Which “GE-HTS (composite Z-score)” value (OXPHOS gene expression; Conc 20 μM) does the source give for `CC(=O)Oc1cccc2c1C(=O)c1c(OC(C)=O)cc(C(=O)O)cc1C2=O` [diacerin] here?
The value was −0.446.

And the “cyt c (composite Z-score)” value (cytochrome c; Conc 20 μM)?
The value was 0.389.

And the “Viability (composite Z-score)” value (C2C12 myotubes; Conc 20 μM)?
The value was −0.692.

And the “ΔΨm (composite Z-score)” value ([1]; Conc 20 μM)?
Its value is 0.195.

And the “nucOX (composite Z-score)” value (nuOXPHOS transcripts; Conc 20 μM)?
The value was −0.509.

And the “mitoOX (composite Z-score)” value (mtOXPHOS transcripts; Conc 20 μM)?
The value was −0.239.

And the “MTT (composite Z-score)” value ([2]; Conc 20 μM)?
The value was −0.608.

What about the “ROS (composite Z-score)” value (reactive oxygen species; Conc 20 μM) of the same compound?
The value was 0.228.

With `CC(=O)c1c(O)c(C)c(O)c2c1oc1c(C(C)=O)c(O)c(C)c(O)c12` [diacetyldideisovaleryl-rhodomyrtoxin] as the compound, how does the GE-HTS (OXPHOS gene expression; [7]) read?
The GE-HTS was −0.776.

And the cyt c (cytochrome c; [7])?
The cyt c was 0.057.

What about the Viability (C2C12 myotubes; [7]) of the same compound?
Its Viability is −0.779.

What about the ΔΨm [1, 7] of the same compound?
The ΔΨm was 1.937.

What about the nucOX (nuOXPHOS transcripts; [7]) of the same compound?
The nucOX was −0.742.

What about the mitoOX (mtOXPHOS transcripts; [7]) of the same compound?
Its mitoOX is −0.703.

And the MTT [2, 7]?
The MTT was 0.875.

And the ROS (reactive oxygen species; [7])?
The ROS was 0.967.

With `Cc1onc(-c2c(Cl)cccc2Cl)c1C(=O)N[C@@H]1C(=O)N2[C@@H]1SC(C)(C)[C@@H]2C(=O)O` [dicloxacillin sodium] as the compound, how does the GE-HTS (OXPHOS gene expression; [8]) read?
The GE-HTS was 0.661.

What about the cyt c (cytochrome c; [8]) of the same compound?
The cyt c was −1.277.

What about the Viability (C2C12 myotubes; [8]) of the same compound?
Its Viability is −0.214.

And the ΔΨm [1, 8]?
Its ΔΨm is 0.196.

What about the nucOX (nuOXPHOS transcripts; [8]) of the same compound?
Its nucOX is 0.533.

What about the mitoOX (mtOXPHOS transcripts; [8]) of the same compound?
Its mitoOX is 0.870.

What about the MTT [2, 8] of the same compound?
Its MTT is −0.587.

And the ROS (reactive oxygen species; [8])?
Its ROS is −0.070.

What does the source list for `C/C=C(/C(=C/C)c1ccc(O)cc1)c1ccc(O)cc1` [dienestrol]?
GE-HTS (OXPHOS gene expression; [9]): 0.033; GE-HTS (OXPHOS gene expression; [5]): −0.280; cyt c (cytochrome c; [9]): 0.894; cyt c (cytochrome c; [5]): −0.653; Viability (C2C12 myotubes; [9]): 0.829; Viability (C2C12 myotubes; [5]): 0.290; ΔΨm [1, 9]: −0.205; ΔΨm [1, 5]: 0.129; nucOX (nuOXPHOS transcripts; [9]): −0.191; nucOX (nuOXPHOS transcripts; [5]): −0.251; mitoOX (mtOXPHOS transcripts; [9]): 0.481; mitoOX (mtOXPHOS transcripts; [5]): −0.222; MTT [2, 9]: −0.652; MTT [2, 5]: −0.326; ROS (reactive oxygen species; [9]): −0.210; ROS (reactive oxygen species; [5]): −0.260
